Here are results for 27 compounds from US6511961B1, “Cyclic peptides and medicinal use thereof” (Toray Industries, Inc., priority 1997, dated 2003).

Read-outs that look alike come from different tables or passages of the source.

The conditions of this data set: disulfide bond, 20-membered ring.

On to `CC[C@H](C)[C@@H]1NC(=O)[C@@H](N)CSSC[C@@H](C(=O)O)NC(=O)[C@@H](CC(C)C)NC(=O)[C@H](Cc2c[nH]cn2)NC(=O)[C@H](CC(=O)O)NC1=O` [C*IDHdLC*], for which, for the setting “from H-Cys(Acm)-Ile-Asp-His-dLeu-Cys(Acm)-OH, AgOTf/anisole/TFA, then DMSO/HCl, 50% DMSO-1N HCl, 2 steps”, the ring closure, yield after HPLC is 51%.

Where the note is “from H-Cys(Acm)-Ile-Asp-His-dPhg-Cys(Acm)-OH, AgOTf/anisole/TFA, then DMSO/HCl, 50% DMSO-1N HCl, 2 steps”, `CC[C@H](C)[C@@H]1NC(=O)[C@@H](N)CSSC[C@@H](C(=O)O)NC(=O)[C@@H](c2ccccc2)NC(=O)[C@H](Cc2c[nH]cn2)NC(=O)[C@H](CC(=O)O)NC1=O` [C*IDHdPhgC*] came in with a ring closure, yield after HPLC of 37%.

Take `CC[C@H](C)[C@@H]1NC(=O)[C@@H](N)CSSC[C@@H](C(=O)O)NC(=O)[C@H](CC(C)C)NC(=O)[C@H](CCc2ccccc2)NC(=O)[C@H](CC(=O)O)NC1=O` [C*IDHphLC*]: the ring closure, yield after HPLC (from H-Cys(Acm)-Ile-Asp-Hph-Leu-Cys(Acm)-OH, AgOTf/anisole/TFA, then DMSO/HCl, 50% DMSO-1N HCl, 2 steps) amounted to 38%.

As to `CC[C@H](C)[C@@H]1NC(=O)[C@@H](N)CSSC[C@@H](C(=O)O)NC(=O)[C@H](CC(C)C)NC(=O)[C@H](c2ccccc2)NC(=O)[C@H](CC(=O)O)NC1=O` [C*IDPhgLC*], under “from H-Cys(Acm)-Ile-Asp-Phg-Leu-Cys(Acm)-OH, AgOTf/anisole/TFA, then DMSO/HCl, 50% DMSO-1N HCl, 2 steps”, the ring closure, yield after HPLC amounted to 48%.

As to `CC[C@H](C)[C@@H]1NC(=O)[C@@H](N)CSSC[C@@H](C(=O)O)NC(=O)[C@H](CC(C)C)NC(=O)[C@H](C(C)(C)C)NC(=O)[C@H](CC(=O)O)NC1=O` [C*IDTleLC*], the ring closure, yield after HPLC (from H-Cys(Acm)-Ile-Asp-Tle-Leu-Cys(Acm)-OH, AgOTf/anisole/TFA, then DMSO/HCl, 50% DMSO-1N HCl, 2 steps) stood at 23%.

`CC[C@H](C)[C@@H]1NC(=O)[C@@H](N)CSSC[C@@H](C(=O)O)NC(=O)[C@H](CC(C)C)NC(=O)[C@H](Cc2c[nH]c3ccccc23)NC(=O)[C@H](CC(=O)O)NC1=O` [C*IDWLC*] yielded a ring closure, yield after HPLC (from H-Cys(Acm)-Ile-Asp-Trp-Leu-Cys(Acm)-OH, AgOTf/anisole/TFA, then DMSO/HCl, 50% DMSO-1N HCl, 2 steps) of 47%.

Under “from H-Cys(Acm)-Ile-Asp-dHis-Leu-Cys(Acm)-OH, AgOTf/anisole/TFA, then DMSO/HCl, 50% DMSO-1N HCl, 2 steps”, `CC[C@H](C)[C@@H]1NC(=O)[C@@H](N)CSSC[C@@H](C(=O)O)NC(=O)[C@H](CC(C)C)NC(=O)[C@@H](Cc2c[nH]cn2)NC(=O)[C@H](CC(=O)O)NC1=O` [C*IDdHLC*] had a ring closure, yield after HPLC of 74%.

The compound `CC[C@H](C)[C@@H]1NC(=O)[C@@H](N)CSSC[C@@H](C(=O)O)NC(=O)[C@H](CC(C)C)NC(=O)[C@@H](c2ccccc2)NC(=O)[C@H](CC(=O)O)NC1=O` [C*IDdPhgLC*] came in with a ring closure, yield after HPLC (from H-Cys(Acm)-Ile-Asp-dPhg-Leu-Cys(Acm)-OH, AgOTf/anisole/TFA, then DMSO/HCl, 50% DMSO-1N HCl, 2 steps) of 8%.

Take `CC[C@H](C)[C@@H]1NC(=O)[C@@H](N)CSSC[C@@H](C(=O)O)NC(=O)[C@H](CC(C)C)NC(=O)[C@H](Cc2c[nH]cn2)NC(=O)[C@H](CCC(=O)O)NC1=O` [C*IEHLC*]: under “from H-Cys(Acm)-Ile-Glu-His-Leu-Cys(Acm)-OH, AgOTf/anisole/TFA, then DMSO/HCl, 50% DMSO-1N HCl, 2 steps”, the ring closure, yield after HPLC came to 71%.

Regarding `CC[C@H](C)[C@@H]1NC(=O)[C@@H](N)CSSC[C@@H](C(=O)O)NC(=O)[C@H](CC(C)C)NC(=O)[C@H](Cc2c[nH]cn2)NC(=O)[C@H](CCO)NC1=O` [C*IHseHLC*], the ring closure, yield after HPLC (from H-Cys(Acm)-Ile-Hse-His-Leu-Cys(Acm)-OH, AgOTf/anisole/TFA, then DMSO/HCl, 50% DMSO-1N HCl, 2 steps) worked out at 56%.

With `CC[C@H](C)[C@@H]1NC(=O)[C@@H](N)CSSC[C@@H](C(=O)O)NC(=O)[C@H](CC(C)C)NC(=O)[C@H](Cc2c[nH]cn2)NC(=O)[C@H](CCS(C)(=O)=O)NC1=O` [C*IMet(O2)HLC*], the ring closure, yield after HPLC (from H-Cys(Acm)-Ile-Met(O2)-His-Leu-Cys(Acm)-OH, AgOTf/anisole/TFA, then DMSO/HCl, 50% DMSO-1N HCl, 2 steps) stood at 68%.

In the case of `CC[C@H](C)[C@@H]1NC(=O)[C@@H](N)CSSC[C@@H](C(=O)O)NC(=O)[C@H](CC(C)C)NC(=O)[C@H](Cc2c[nH]cn2)NC(=O)[C@H](CC(N)=O)NC1=O` [C*INHLC*], the ring closure, yield after HPLC (from H-Cys(Acm)-Ile-Asn-His-Leu-Cys(Acm)-OH, AgOTf/anisole/TFA, then DMSO/HCl, 50% DMSO-1N HCl, 2 steps) was determined as 85%.

Regarding `CC[C@H](C)[C@@H]1NC(=O)[C@@H](N)CSSC[C@@H](C(N)=O)NC(=O)[C@H](CC(C)C)NC(=O)[C@H](Cc2c[nH]cn2)NC(=O)[C@H](CC(N)=O)NC1=O` [C*INHLC*—NH2], the ring closure, yield after HPLC (from H-Cys(Acm)-Ile-Asn-His-Leu-Cys(Acm)-NH2, AgOTf/anisole/TFA, then DMSO/HCl, 50% DMSO-1N HCl, 2 steps) was 18%.

Consider `CC[C@H](C)[C@@H]1NC(=O)[C@@H](N)CSSC[C@@H](C(=O)O)NC(=O)[C@H](CC(C)C)NC(=O)[C@H](Cc2c[nH]cn2)NC(=O)[C@H](COC)NC1=O` [C*IS(OMe)HLC*], for which the ring closure, yield after HPLC (from H-Cys(Acm)-Ile-Ser(OMe)-His-Leu-Cys(Acm)-OH, AgOTf/anisole/TFA, then DMSO/HCl, 50% DMSO-1N HCl, 2 steps) came to 52%.

In turn, `CC[C@H](C)[C@@H]1NC(=O)[C@@H](N)CSSC[C@@H](C(=O)O)NC(=O)[C@H](CC(C)C)NC(=O)[C@H](Cc2c[nH]cn2)NC(=O)[C@H](Cc2ccc(O)cc2)NC1=O` [C*IYHLC*] gave a ring closure, yield after HPLC (from H-Cys(Acm)-Ile-Tyr-His-Leu-Cys(Acm)-OH, AgOTf/anisole/TFA, then DMSO/HCl, 50% DMSO-1N HCl, 2 steps) of 52%.

For the setting “from H-Cys(Acm)-Phg-Asp-His-Leu-Cys(Acm)-OH, AgOTf/anisole/TFA, then DMSO/HCl, 50% DMSO-1N HCl, 2 steps”, `CC(C)C[C@@H]1NC(=O)[C@H](Cc2c[nH]cn2)NC(=O)[C@H](CC(=O)O)NC(=O)[C@H](c2ccccc2)NC(=O)[C@@H](N)CSSC[C@@H](C(=O)O)NC1=O` [C*PhgDHLC*] returned a ring closure, yield after HPLC of 64%.

`CC(C)C[C@@H]1NC(=O)[C@H](Cc2c[nH]cn2)NC(=O)[C@H](CC(=O)O)NC(=O)[C@@H]2Cc3ccccc3CN2C(=O)[C@@H](N)CSSC[C@@H](C(=O)O)NC1=O` [C*TicDHLC*] registered a ring closure, yield after HPLC (from H-Cys(Acm)-Tic-Asp-His-Leu-Cys(Acm)-OH, AgOTf/anisole/TFA, then DMSO/HCl, 50% DMSO-1N HCl, 2 steps) of 30%.

For the compound `CC(C)C[C@@H]1NC(=O)[C@H](Cc2c[nH]cn2)NC(=O)[C@H](CC(=O)O)NC(=O)[C@H](C(C)(C)C)NC(=O)[C@@H](N)CSSC[C@@H](C(=O)O)NC1=O` [C*TleDHLC*], the ring closure, yield after HPLC (from H-Cys(Acm)-Tle-Asp-His-Leu-Cys(Acm)-OH, AgOTf/anisole/TFA, then DMSO/HCl, 50% DMSO-1N HCl, 2 steps) stood at 69%.

Under “from H-Cys(Acm)-Val-Asp-His-Leu-Cys(Acm)-OH, AgOTf/anisole/TFA, then DMSO/HCl, 50% DMSO-1N HCl, 2 steps”, `CC(C)C[C@@H]1NC(=O)[C@H](Cc2c[nH]cn2)NC(=O)[C@H](CC(=O)O)NC(=O)[C@H](C(C)C)NC(=O)[C@@H](N)CSSC[C@@H](C(=O)O)NC1=O` [C*VDHLC*] registered a ring closure, yield after HPLC of 75%.

In the case of `CC[C@@H](C)[C@H]1NC(=O)[C@@H](N)CSSC[C@@H](C(=O)O)NC(=O)[C@H](CC(C)C)NC(=O)[C@H](Cc2c[nH]cn2)NC(=O)[C@H](CC(=O)O)NC1=O` [C*dIDHLC*], the ring closure, yield after HPLC (from H-Cys(Acm)-dIle-Asp-His-Leu-Cys(Acm)-OH, AgOTf/anisole/TFA, then DMSO/HCl, 50% DMSO-1N HCl, 2 steps) came out at 72%.

Compound `CC(C)C[C@@H]1NC(=O)[C@H](CO)NC(=O)[C@H](CC(=O)O)NC(=O)[C@@H](CC(C)C)NC(=O)[C@@H](N)CSSC[C@@H](C(=O)O)NC1=O` [C*dLDSLC*] came in with a ring closure, yield after HPLC (from H-Cys(Acm)-dLeu-Asp-Ser-Leu-Cys(Acm)-OH, AgOTf/anisole/TFA, then DMSO/HCl, 50% DMSO-1N HCl, 2 steps) of 77%.

In the case of `CC(C)C[C@@H]1NC(=O)[C@@H](CO)NC(=O)[C@H](CC(=O)O)NC(=O)[C@@H](CC(C)C)NC(=O)[C@@H](N)CSSC[C@@H](C(=O)O)NC1=O` [C*dLDdSLC*], where the note is “from H-Cys(Acm)-dLeu-Asp-dSer-Leu-Cys(Acm)-OH, AgOTf/anisole/TFA, then DMSO/HCl, 50% DMSO-1N HCl, 2 steps”, the ring closure, yield after HPLC amounted to 62%.

With `CC(C)C[C@@H]1NC(=O)[C@H](Cc2c[nH]cn2)NC(=O)[C@H](CC(=O)O)NC(=O)[C@@H](c2ccccc2)NC(=O)[C@@H](N)CSSC[C@@H](C(=O)O)NC1=O` [C*dPhgDHLC*], the ring closure, yield after HPLC (from H-Cys(Acm)-dPhg-Asp-His-Leu-Cys(Acm)-OH, AgOTf/anisole/TFA, then DMSO/HCl, 50% DMSO-1N HCl, 2 steps) is 55%.

As to `CC[C@H](C)[C@@H]1NC(=O)CCSSC[C@@H](C(=O)O)NC(=O)[C@H](CC(C)C)NC(=O)[C@H](Cc2c[nH]cn2)NC(=O)[C@H](CC(=O)O)NC1=O` [Mpr*IDHLC*], the ring closure, yield after HPLC (from Mpr(Acm)-Ile-Asp-His-Leu-Cys(Acm)-OH, AgOTf/anisole/TFA, then DMSO/HCl, 50% DMSO-1N HCl, 2 steps) is 33%.

`CC[C@H](C)[C@@H]1NC(=O)[C@@H](N)C(C)(C)SSC[C@@H](C(=O)O)NC(=O)[C@H](CC(C)C)NC(=O)[C@H](Cc2c[nH]cn2)NC(=O)[C@H](CC(=O)O)NC1=O` [Pen*IDHLC*] registered a ring closure, yield after HPLC (from H-Pen(Acm)-Ile-Asp-His-Leu-Cys(Acm)-OH, AgOTf/anisole/TFA, then DMSO/HCl, 50% DMSO-1N HCl, 2 steps) of 30%.

`CC[C@H](C)[C@@H]1NC(=O)[C@H](N)CSSC[C@@H](C(=O)O)NC(=O)[C@H](CC(C)C)NC(=O)[C@H](Cc2c[nH]cn2)NC(=O)[C@H](CC(=O)O)NC1=O` [dC*IDHLC*] displayed a ring closure, yield after HPLC (from H-dCys(Acm)-Ile-Asp-His-Leu-Cys(Acm)-OH, AgOTf/anisole/TFA, then DMSO/HCl, 50% DMSO-1N HCl, 2 steps) of 39%.

Compound C*IDSLC* showed a ring closure, yield after HPLC (K3[Fe(CN)6]/NH3 pH 7.5-8, water) of 62%.
